Like-named read-outs stand apart in the source and are kept apart here.

Data on 48 compounds can be found in EP0490667B1, “HIV protease inhibitors” (priority 1990, dated 1992).

This assay deals with T1, chemically synthesized HIV protease (Human immunodeficiency virus type 1 group M subtype B, UniProt P12497, C555A/C583A).
T1 construct: The HIV protease was chemically synthesized; made in house; host or cells: chemical synthesis (no expression host)
It counts as biochemical. From the text: The HPLC condition was as followes. Column: VYDAC 218 TP 54, C18 • Solvent A: 0.1% trifluoroacetic acid aqueous solution • Solvent B: acetonitrile • Gradient: B was increased in 1.0%/min from 100% of A,

Setting [1] is: inhibitor 5mM as headed in Tables 3-6.
Setting [2] is: inhibitor 1mM as headed in Tables 3-6.
[3] abbreviates: inhibitor 5 µM final concentration (Tables 1-2).

Regarding “1-Naphthoxyacetyl-Mta-(2S,3S)-AHPBA-Thz-NH-tBu [Example 162]”, the “Residual Activity (%)” value under setting [1] was 2.9%. On to “Benzyloxycarbonyl-Asn-(2S,3S)-AHPBA-(D)-Pip-NH-tBu [Example 79]”, for which, under setting [2], the “Residual Activity (%)” value is given as 84.0%.

As for “3-Phenylpropionyl-Msa-(2S,3S)-AHPBA-Pro-Ile-Val-NH2 [Example 62]”, the “Residual Activity (%)” value under setting [3] was 3.2%. For “Benzyloxycarbonyl-Asn-(2S,3S)-AHPBA-Tcp-NH-tBu [Example 186]”, the “Residual Activity (%)” value under setting [1] is given as 99.5%. On the same count and under the same terms, next, “Benzyloxycarbonyl-Asn-(2S,3S)-AHPBA-Cpp-NH-tBu [Example 185]”: 96.0%.

With “Benzyloxycarbonyl-Asn-(2S,3S)-AHPBA-Pro-O-tBu [Example 86]”, the “Residual Activity (%)” value under setting [2] is recorded as 12.6%. Take “Benzyloxycarbonyl-Asn-(2S,3S)-AHPBA-Pro-NH-sBu [Example 176]”: the “Residual Activity (%)” value under setting [1] amounted to 82.6%. In the case of “Benzyloxycarbonyl-Asn-(2S,3S)-AHPBA-(L)-Pip-NH-tBu [Example 78]”, the “Residual Activity (%)” value under setting [2] was 11.7%. Same read-out and setting: next, “Benzyloxycarbonyl-Asn-(2S,3S)-AHPBA-Thz-NH-tBu [Example 82]”: 1.3%. Same read-out and setting: next, “Benzyloxycarbonyl-Asn-(2S,3S)-AHPBA-Pro-NH-CH(C2H5)2 [Example 89]”: less than 10%. Consider “Benzyloxycarbonyl-Asn-(2S,3S)-AHPBA-Dmp-NH2 [Example 188]”, for which, under setting [1], the “Residual Activity (%)” value came to 98.1%.

“Benzyloxycarbonyl-Asn-(2S,3S)-AHPBA-Dmp-NH-tBu [Example 182]”: the “Residual Activity (%)” value under setting [1] was found to be 26.8%. On the same count and under the same terms, the same measure for “PhCH2-O-CO-Asn-(2S,3S)-ASPBA-(L)-Tic-NH-tBu [Example 102]”: 89.2%. Turning to “Benzyloxycarbonyl-Asn-(2S,3S)-AHPBA-Pro-NH-CH2-C(CH3)3 [Example 83]”, the “Residual Activity (%)” value under setting [2] is 12.4%. “Benzyloxycarbonyl-Asn-(2S,3S)-AHPBA-Pdp-NH-tBu [Example 164]”: under setting [1], the “Residual Activity (%)” value stood at 49.8%. Same read-out and setting: next, “1-Isoquinolinecarbonyl-Asn-(2S,3S)-AHPBA-Pro-NH-tBu.AcOH [Example 140]”: 72.8%. For the compound `CS(=O)(=O)C[C@H](NC(=O)COc1cccc2ccccc12)C(=O)N[C@@H](Cc1ccccc1)[C@H](O)C(=O)N1CSC[C@H]1C(=O)NCC(N)=O` [Example 172, 1-Naphthoxyacetyl-Msa-(2S,3S)-AHPBA-Thz-Gly-NH2], under setting [1], the “Residual Activity (%)” value amounted to 77.9%. On to “Benzyloxycarbonyl-Asn-(2S,3S)-AHPBA-Pro-NH-cyclopropyl [Example 88]”, for which the “Residual Activity (%)” value under setting [2] is listed as less than 10%. As to “PhCH2-O-CO-Asn-(2S,3S)-AHPBA-(D)-Tic-NH-tBu [Example 103]”, under setting [1], the “Residual Activity (%)” value came to 91.4%. For “2-Quinolinecarbonyl-Asn-(2S,3S)-AHPBA-Pro-NH-tBu [Example 138]”, the “Residual Activity (%)” value under setting [1] is 27.3%.

Regarding “Benzyloxycarbonyl-Asn-(2S,3S)-AHPBA-Dtc-NH-tBu [Example 104]”, under setting [1], the “Residual Activity (%)” value turned out to be 3.8%.

“Benzyloxycarbonyl-Asn-(2S,3S)-AHPBA-Php-NH-tBu [Example 184]”: the “Residual Activity (%)” value under setting [1] was determined as 16.8%.

On to “Benzyloxycarbonyl-Asn-(2S,3S)-AHPBA-Pro-NH-tAmyl [Example 87]”, for which the “Residual Activity (%)” value under setting [2] was determined as 5.8%. As for “m-(Piper-CO-)Ph-O-CH2-CO-Msa-(2S,3S)-AHPBA-Thz-NH-tBu [Example 167]”, the “Residual Activity (%)” value under setting [1] came to 25.4%. With “1-Naphthoxyacetyl-Asn-(2S,3S)-AHPBA-Thz-NH-cyclopentyl [Example 128]”, under setting [1], the “Residual Activity (%)” value came to 10.5%.

In the case of `CC(C)(C)NC(=O)[C@@H]1CSCN1C(=O)[C@@H](O)[C@H](Cc1ccccc1)NC(=O)[C@H](CS(C)(=O)=O)NC(=O)COc1cccc(C(=O)N2CCOCC2)c1` [Example 168, m-(Morph-CO)-Ph-O-CH2-CO-Msa-(2S,3S)-AHPBA-Thz-NH-tBu], the “Residual Activity (%)” value under setting [1] is recorded as 44.5%. Take “Benzyloxycarbonyl-Asn-(2S,3S)-AHPBA-Hyp(Bzl)-NH-tBu [Example 95]”: under setting [2], the “Residual Activity (%)” value is recorded as 34.6%. In the case of “Benzyloxycarbonyl-Asn-(2S,3S)-AHPBA-Ccp-NH-tBu [Example 187]”, under setting [1], the “Residual Activity (%)” value was 99.0%. In the case of `CC(CNC(=O)[C@@H]1CSCN1C(=O)[C@@H](O)[C@H](Cc1ccccc1)NC(=O)[C@H](CS(C)(=O)=O)NC(=O)COc1cccc2ccccc12)C(N)=O` (stereo partly drawn) [Example 174, 1-Naphthoxyacetyl-Msa-(2S,3S)-AHPBA-Thz-BAIB-NH2], under setting [1], the “Residual Activity (%)” value came to 46.6%. For “Benzyloxycarbonyl-Asn-(2S,3S)-AHPBA-Inc-NH-tBu [Example 96]”, the “Residual Activity (%)” value under setting [2] worked out at 95.2%. For the compound “Benzyloxycarbonyl-Asn-(2S,3S)-AHPBA-Pro-NH-C(CH3)2-CH2-OH [Example 99]”, under setting [1], the “Residual Activity (%)” value is 62.2%.

With “m-Isopropyloxyphenoxyacetyl-Msa-(2S,3S)-AHPBA-Dtc-NH-tBu [Example 166]”, under setting [1], the “Residual Activity (%)” value came out at 2.0%. The same measure, in the same setting: the same measure for “Benzyloxycarbonyl-Asn-(2S,3S)-AHPBA-Dtc-NH2 [Example 177]”: 74.2%. For “1-Naphthoxyacetyl-Msa-(2S,3S)-AHPBA-Thz-NH-chex-ol [Example 158]”, the “Residual Activity (%)” value under setting [2] is given as less than 10%. As to “2-Quinolinecarbonyl-Asn-(2S,3S)-AHPBA-Dtc-NH-tBu [Example 118]”, the “Residual Activity (%)” value under setting [1] is reported as 1.8%.

For the compound “1-Naphthoxyacetyl-Msa-(2S,3S)-AHPBA-Thz-Pip-O-CH3 [Example 159]”, the “Residual Activity (%)” value under setting [1] came to 90.8%.

As for `CS(=O)(=O)C[C@H](NC(=O)COc1cccc2ccccc12)C(=O)N[C@@H](Cc1ccccc1)[C@H](O)C(=O)N1CSC[C@H]1C(=O)N[C@H](C(N)=O)c1ccccc1` [Example 157, 1-Naphthoxyacetyl-Msa-(2S,3S)-AHPBA-Thz-Phg-NH2], under setting [1], the “Residual Activity (%)” value was determined as 93.9%. As to “Thiophenecarbonyl-Asn-(2S,3S)-AHPBA-Pro-Ile-Val-NH2 [Example 67]”, the “Residual Activity (%)” value (inhibitor 1 mM (Tables 1-2)) was determined as 4.9%. In the case of “Benzyloxycarbonyl-Val-(2R,3S)-AHPBA-Phe-Val-NH-CH2-CH(CH3)2 [Example HH]”, under setting [3], the “Residual Activity (%)” value came to 83.4%. `CC(CC(N)=O)NC(=O)[C@@H]1CSCN1C(=O)[C@@H](O)[C@H](Cc1ccccc1)NC(=O)[C@H](CS(C)(=O)=O)NC(=O)COc1cccc2ccccc12` (stereo partly drawn) [Example 175, 1-Naphthoxyacetyl-Msa-(2S,3S)-AHPBA-Thz-BANB-NH2]: the “Residual Activity (%)” value under setting [1] was 33.0%.

Consider “Bis(4-chlorophenyl)methyloxyacetyl-Asn-(2S,3S)-AHPBA-Pro-NH-tBu [Example 94]”, for which the “Residual Activity (%)” value under setting [1] was determined as 37.0%. For “Furancarbonyl-Asn-(2S,3S)-AHPBA-Pro-Ile-Val-NH2 [Example 65]”, under “inhibitor 1 mM (Tables 1-2)”, the “Residual Activity (%)” value came to 9.3%. As for “Benzyloxycarbonyl-Val-(2R,3S)-AHPBA-Phe-NH-CH2-CH(CH3)2 [Example JJ]”, the “Residual Activity (%)” value under setting [3] is given as 84.9%. In the case of “PhCH2-O-CO-Asn-(2S,3S)-AHPBA-Pro-NH-CH2-C6H11 [Example 49]”, the “Residual Activity (%)” value under setting [3] was found to be 51.9%. “Benzyloxycarbonyl-Asn-(2S,3S)-AHPBA decahydroisoquinoline”: the “Residual Activity (%)” value under setting [1] was 8.6%. With “Benzyloxycarbonyl-Asn-(2S,3S)-AHPBA-Pro-Aib-NH2 [Example 93]”, under setting [2], the “Residual Activity (%)” value is less than 10%. For `CS(=O)(=O)C[C@H](NC(=O)COc1cccc2ccccc12)C(=O)N[C@@H](Cc1ccccc1)[C@H](O)C(=O)N1CSC[C@H]1C(=O)NCCCC(N)=O` [Example 173, 1-Naphthoxyacetyl-Msa-(2S,3S)-AHPBA-Thz-GABA-NH2], under setting [1], the “Residual Activity (%)” value came out at 65.0%. Turning to “1-Naphthoxyacetyl-Msa-(2S,3S)-AHPBA-Oic-NH-tBu [Example 146]”, the “Residual Activity (%)” value under setting [1] is recorded as 97.5%.
